Data reported in ChEMBL document CHEMBL1201862, “PubChem BioAssay data set” (2004).
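Five concentrations, 48 hours, 96-well plates. GI50 = concentration required for 50% inhibition of growth.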 Active and inactive are the calls of the source. Rule as the data show it: active = GI50 up to about 1.1 µM and inactive = higher.

Legend:
Test in all cases: NCI-60 cell line screen, 48 h
SK-MEL-2 = test system: SK-MEL-2
HOP-92 = test system: HOP-92
LOX IMVI = test system: LOX IMVI
OVCAR-4 = test system: OVCAR-4
K562 = test system: K562
HOP-62 = test system: HOP-62
SNB-75 = test system: SNB-75
HL-60 = test system: HL-60
IGROV-1 = test system: IGROV-1
EKVX = test system: EKVX
NCI-H460 = test system: NCI-H460
NCI-H23 = test system: NCI-H23
Hs-578T = test system: Hs-578T
ACHN = test system: ACHN
COLO 205 = test system: COLO 205
HT-29 = test system: HT-29
NCI/ADR-RES = test system: NCI/ADR-RES
SF-295 = test system: SF-295
PC-3 = test system: PC-3
MDA-N = test system: MDA-N

SMILES	GI50 (SK-MEL-2)	GI50 (HOP-92)	GI50 (LOX IMVI)	GI50 (OVCAR-4)	GI50 (K562)	GI50 (HOP-62)	GI50 (SNB-75)	GI50 (HL-60)	GI50 (IGROV-1)	GI50 (EKVX)	GI50 (NCI-H460)	GI50 (NCI-H23)	GI50 (Hs-578T)	GI50 (ACHN)	GI50 (COLO 205)	GI50 (HT-29)	GI50 (NCI/ADR-RES)	GI50 (SF-295)	GI50 (PC-3)	GI50 (MDA-N)
Sc1cnnc2ccc(Br)cc12	26.6 µM (inactive)	42.7 µM (inactive)	46 µM (inactive)	35.9 µM (inactive)	37.8 µM (inactive)	> 100 µM (inactive)	> 100 µM (inactive)	36.8 µM (inactive)	48.1 µM (inactive)	22.5 µM (inactive)	35.6 µM (inactive)	28.8 µM (inactive)	57.3 µM (inactive)	28.5 µM (inactive)	> 100 µM (inactive)	26.4 µM (inactive)	48.6 µM (inactive)	34 µM (inactive)	–	–
C#CCNCC(=O)O	> 100 µM (inactive)	> 100 µM (inactive)	–	> 100 µM (inactive)	–	> 100 µM (inactive)	–	–	> 100 µM (inactive)	> 100 µM (inactive)	–	> 100 µM (inactive)	> 100 µM (inactive)	> 100 µM (inactive)	> 100 µM (inactive)	> 100 µM (inactive)	> 100 µM (inactive)	> 100 µM (inactive)	> 100 µM (inactive)	> 100 µM (inactive)
NC(=O)c1nnn(-c2ccccc2)c1O	> 100 µM (inactive)	–	> 100 µM (inactive)	–	> 100 µM (inactive)	> 100 µM (inactive)	> 100 µM (inactive)	0.1 µM (active)	> 100 µM (inactive)	> 100 µM (inactive)	> 100 µM (inactive)	> 100 µM (inactive)	> 100 µM (inactive)	> 100 µM (inactive)	> 100 µM (inactive)	> 100 µM (inactive)	> 100 µM (inactive)	> 100 µM (inactive)	> 100 µM (inactive)	–
CCCCCCCCCCCCCCCCOCC(CC(F)(F)P(=O)(O)O)OC(C)=O (stereo not drawn)	> 50 µM (inactive)	> 50 µM (inactive)	–	–	> 50 µM (inactive)	15.1 µM (inactive)	> 50 µM (inactive)	–	> 50 µM (inactive)	> 50 µM (inactive)	> 50 µM (inactive)	> 50 µM (inactive)	–	> 50 µM (inactive)	> 50 µM (inactive)	> 50 µM (inactive)	> 50 µM (inactive)	> 50 µM (inactive)	> 50 µM (inactive)	> 50 µM (inactive)
CN(C)c1ccc(/C=C2\C[C@H]3[C@@H]4CCc5cc(OCCN6CCCC6)ccc5[C@H]4CC[C@]3(C)C2=O)cc1	1.98 µM (inactive)	–	–	1.63 µM (inactive)	1.08 µM (active)	–	1.71 µM (inactive)	–	1.13 µM (inactive)	2.2 µM (inactive)	1.59 µM (inactive)	3.25 µM (inactive)	–	1.73 µM (inactive)	1.52 µM (inactive)	0.288 µM (active)	1.91 µM (inactive)	1.86 µM (inactive)	1.78 µM (inactive)	1.85 µM (inactive)
CCOC1OC(CO)C(O)CC1n1ccc(=O)[nH]c1=O (stereo not drawn)	> 100 µM (inactive)	> 100 µM (inactive)	> 100 µM (inactive)	> 100 µM (inactive)	> 100 µM (inactive)	–	> 100 µM (inactive)	–	> 100 µM (inactive)	> 100 µM (inactive)	> 100 µM (inactive)	> 100 µM (inactive)	> 100 µM (inactive)	> 100 µM (inactive)	> 100 µM (inactive)	> 100 µM (inactive)	> 100 µM (inactive)	> 100 µM (inactive)	> 100 µM (inactive)	> 100 µM (inactive)
COC(=O)CCCc1ccc2c(c1)CC1(Cc3ccccc3C1)C2	19.5 µM (inactive)	> 100 µM (inactive)	40.3 µM (inactive)	63 µM (inactive)	–	> 100 µM (inactive)	–	–	> 100 µM (inactive)	> 100 µM (inactive)	–	46.3 µM (inactive)	> 100 µM (inactive)	75.3 µM (inactive)	26.3 µM (inactive)	31 µM (inactive)	80 µM (inactive)	> 100 µM (inactive)	41.1 µM (inactive)	23.2 µM (inactive)
COc1ccc2c(c1)/C(=C\c1c(C)nc3n1CCS3)C(=O)N2	29 µM (inactive)	34.4 µM (inactive)	26.5 µM (inactive)	–	10.3 µM (inactive)	32.3 µM (inactive)	28.1 µM (inactive)	15.6 µM (inactive)	16.7 µM (inactive)	34.5 µM (inactive)	20 µM (inactive)	24.5 µM (inactive)	–	40.5 µM (inactive)	9.42 µM (inactive)	12.6 µM (inactive)	26.8 µM (inactive)	16.4 µM (inactive)	16.3 µM (inactive)	3.29 µM (inactive)
